PMC11720699, “Developing Allosteric Chaperones for GBA1-Associated Disorders—An Integrated Computational and Experimental Approach” (International Journal of Molecular Sciences, 2024)

How the values were obtained:
[1] = test system: monohexosylceramide (HexCer); test: HexCer substrate quantification by LC/MS-MS in GD patient fibroblasts; assay type: cell-based, human; details: L444P/L444P fibroblasts
Protocol: L444P/L444P fibroblasts have impaired GCase activity due to the presence of the mutation, resulting in the accumulation of toxic substrates, glucosylceramide (GlcCer), and other related sphingolipids in the lysosome. To evaluate the efficacy of the compounds in reducing substrate accumulation, we quantified monohexosylceramide (HexCer) species (including GluCer) after treatment of L444P/L444P fibroblasts with compounds 2 and 3. The accumulation and clearance of these substrates were measured by liquid chromatography-tandem mass spectrometry (LC/MS-MS), quantifying the total HexCer species. […] Moreover, at higher concentrations, it inhibited GCase activity (Figure 5A), leading to increased accumulation of HexCer (Figure 5C).
For fibroblast samples, cell pellets were dissolved in 150 µL of methanol containing 0.5% formic acid and 1 µM GalCer-d35 (C18 Galactosylceramide-d35 [d18:1/18:0-d35]; 24467 Cayman, Ann Arbor, MI, USA) as an internal standard. The samples were shaken for 1 h and sonicated once for 4 s at 30% amplitude. The supernatant was then collected by centrifugation at 13,000 G for 5 min at 4 °C. Sphingolipid analysis was performed using UPLC with an Agilent 1290 Infinity II/QQQ G6475 mass spectrometer system. […] HexCer was monitored in multiple reaction monitoring (MRM) mode, quantifying the 728.6 > 710.5 m/z transition.

GCase = biological target: T1, GCase (Homo sapiens, UniProt P04062); test: Differential scanning fluorimetry (DSF) thermal stabilization of GCase; assay type: binding; set-up: purchased R&D Systems; details: pH 7.2, DSF, 30 µM compound, read-out: ΔTm (thermal shift relative to rhGCase alone)
T1 sequence (P04062 40-536): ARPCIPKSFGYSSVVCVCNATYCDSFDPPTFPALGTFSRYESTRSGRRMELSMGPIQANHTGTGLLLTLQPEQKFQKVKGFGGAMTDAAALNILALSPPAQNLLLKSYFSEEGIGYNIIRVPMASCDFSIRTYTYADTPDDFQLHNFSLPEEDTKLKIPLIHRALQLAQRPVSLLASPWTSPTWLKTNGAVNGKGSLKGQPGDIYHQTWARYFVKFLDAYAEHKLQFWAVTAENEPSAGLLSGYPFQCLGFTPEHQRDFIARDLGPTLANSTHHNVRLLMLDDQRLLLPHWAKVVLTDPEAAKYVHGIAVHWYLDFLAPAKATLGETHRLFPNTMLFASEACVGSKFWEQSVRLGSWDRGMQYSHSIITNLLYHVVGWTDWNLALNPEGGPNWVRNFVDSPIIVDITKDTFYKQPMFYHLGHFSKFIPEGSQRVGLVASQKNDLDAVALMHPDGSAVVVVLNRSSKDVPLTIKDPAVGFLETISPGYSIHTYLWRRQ
Excerpt: DSF is a method used to evaluate protein thermal stability and detect ligand interactions by observing how binding affects protein stability. Specifically, it examines the interaction between small molecules and the human GCase protein. DSF uses fluorescent dyes to track protein unfolding as temperature changes. As the protein unfolds due to rising temperatures, its hydrophobic regions become exposed, altering the dye’s fluorescence signal. This change helps determine the melting temperature (Tm). Variations in Tm compared to the protein alone reveal interactions with tested compounds, aiding in identifying molecules that stabilize GCase.
The ability of the compounds to stabilize the GCase protein was evaluated using DSF. This involved monitoring the thermal denaturation of the purified human native enzyme with the fluorescent probe SYPRO™ Orange (Thermo Fisher Scientific, Waltham, MA, USA), which binds to hydrophobic regions exposed during protein unfolding. Each reaction (25 μL) was conducted in triplicate in a 96-well plate. The reactions included 12.5 µL of […] rhGCase protein (R&D Systems) in a buffer of 10 mM Na3PO4, 164 mM NaCl, pH 7.2, resulting in a final protein concentration of 1 µM with SYPRO Orange 10x. Additionally, 12.5 µL of various compound solutions, initially dissolved in 100% DMSO and diluted in the protein buffer to a final concentration of 1% DMSO, were added. The fluorescence intensity of SYPRO Orange was measured as the temperature increased using the Roche LightCycler® 480 II (Roche Diagnostics). The significance of melting temperature (Tm) shifts was determined by two criteria: an absolute ∆Tm shift greater than 0.5 °C (instrumental criterion) and an absolute ΔTm standard deviation of 0.2 or less (statistical criterion). The thermal shift dose response was tested with GCase (R&D Systems) in two independent experiments, each performed in triplicate at a concentration of 30 µM for the DSF assays.

Row | Structure (SMILES) | effect on HexCer levels [1] | ΔTm at 30 µM (GCase)
1 | CN(Cc1ccccc1)Cc1nc(N)nc(Nc2cccc(Br)c2)n1 [Compound 2] | ineffective in lowering sphingolipid levels | -0.1 °C
2 | CN(C(=O)c1cc(N)cc(Nc2cccc3c2OCO3)n1)c1ccccc1 [Compound 3] | successfully decreased HexCer levels | -0.64 °C
